Laboratory results: patent US8629159B2, “Thiazolidinedione analogues” (Metabolic Solutions Development Company, LLC, priority 2006, dated 2014)

How the values were obtained:
PPARγ = biological target: T1, PPARγ (Homo sapiens, UniProt P37231); assay: commercial PPARγ binding assay (Invitrogen; PPAR-LBD/Fluormone PPAR Green complex); settings: for Binding to PPARγ (Fluormone displacement signal): mean of three experiments
T1 construct: purchased Invitrogen Corporation, Carlsbad, Calif
T1 sequence (P37231 238-503 limits assumed): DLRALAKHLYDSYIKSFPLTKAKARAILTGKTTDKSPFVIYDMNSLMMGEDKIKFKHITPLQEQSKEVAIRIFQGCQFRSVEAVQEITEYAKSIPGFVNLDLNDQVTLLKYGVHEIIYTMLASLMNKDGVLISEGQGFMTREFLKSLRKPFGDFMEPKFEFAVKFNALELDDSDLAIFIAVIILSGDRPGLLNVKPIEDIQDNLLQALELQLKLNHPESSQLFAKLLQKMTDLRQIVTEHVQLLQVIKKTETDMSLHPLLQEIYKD
Method: The ability of several exemplary compounds of the present invention, shown in Table A, to bind to PPARγ was measured using a commercial binding assay (Invitrogen Corporation, Carlsbad, Calif.) that measures the test compounds ability to bind with PPAR-LBD/Fluormone PPAR Green complex. These assays were performed on three occasions with each assay using four separate wells (quadruplicate) at each concentration of tested compound. The data are mean and SEM of the values obtained from the three experiments. […] Compounds were added at the concentrations shown, which range from 0.1-100 micromolar.

[1] = system: Male Dahl salt-sensitive rats; assay: Antihypertensive action in hypertensive Dahl salt-sensitive rats (high salt diet), mean blood pressure by direct femoral arterial cannulation; assay type: in vivo, rat; settings: oral gavage daily, Compound 1 40 mg/kg/day, HCTZ 5 mg/kg/day
Method: Male Dahl salt-sensitive rats were made hypertensive by feeding of a high salt diet (4% salt) for 3 weeks and then treated daily with the indicated dose of hydrochlorothiazide (HCTZ), compound 1, or the combination of HCTZ and compound 1, as compared to the vehicle alone (1% carboxymethylcellulose/0.01% Tween 20) by oral gavage for 8 days. Mean blood pressure was measured by direct femoral arterial cannulation under fed conditions on day 7 and after a 6 hour fast on day 8.
Referring to FIG. 2 and Table C above, the antihypertensive action of compound 1 is additive with hydrocholothiazide (HCTZ). Data are mean and (SEM) mean blood pressure taken by direct cannulation. N=5; * p<0.05 less than blood pressure in HCTZ-treated rats.

| Binding to PPARγ (Fluormone displacement signal) (PPARγ; 1 μM compound) | Binding to PPARγ (Fluormone displacement signal) (PPARγ; 3 μM compound) | Binding to PPARγ (Fluormone displacement signal) (PPARγ; 10 μM compound) | Binding to PPARγ (Fluormone displacement signal) (PPARγ; 50 μM compound) | Binding to PPARγ (Fluormone displacement signal) (PPARγ; 100 μM compound) | Binding to PPARγ (Fluormone displacement signal) (PPARγ; .1 μM compound) | Binding to PPARγ (Fluormone displacement signal) (PPARγ; .3 μM compound) | Compound | binding to PPARγ (in words) (PPARγ; FIG. 1 and Table B) | Mean blood pressure, Fasted ([1]; 6 hour fast, day 8) | Mean blood pressure, Fed ([1]; fed, day 7) |
| --- | --- | --- | --- | --- | --- | --- | --- | --- | --- | --- |
| 228 | 226 | 212 | 132 | 106 | 235 | 230 | CCc1ccc(C(O)COc2ccc(CC3(C)SC(=O)NC3=O)cc2)nc1 (stereo not drawn) [Compound 5] | – | – | – |
| 239 | 241 | 233 | 199 | 186 | 237 | 243 | CCc1ccc([C@@H](O)COc2ccc(CC3(C)SC(=O)NC3=O)cc2)nc1 (stereo partly drawn) [Compound 8] | – | – | – |
| 239 | 233 | 234 | 189 | 164 | 237 | 237 | CCc1ccc([C@H](O)COc2ccc(CC3(C)SC(=O)NC3=O)cc2)nc1 (stereo partly drawn) [Compound 9] | – | – | – |
| 240 | 234 | 219 | 126 | 93 | 245 | 239 | CCc1ccc(C(=O)COc2ccc(CC3(C)SC(=O)NC3=O)cc2)nc1 (stereo not drawn) [Compound 10] | – | – | – |

The next lines start with the compound.

| Compound | Binding to PPARγ (Fluormone displacement signal) (PPARγ; 1 μM compound) | Binding to PPARγ (Fluormone displacement signal) (PPARγ; 3 μM compound) | Binding to PPARγ (Fluormone displacement signal) (PPARγ; 10 μM compound) | Binding to PPARγ (Fluormone displacement signal) (PPARγ; 50 μM compound) | Binding to PPARγ (Fluormone displacement signal) (PPARγ; 100 μM compound) | Binding to PPARγ (Fluormone displacement signal) (PPARγ; .1 μM compound) | Binding to PPARγ (Fluormone displacement signal) (PPARγ; .3 μM compound) | binding to PPARγ (in words) (PPARγ; FIG. 1 and Table B) | Mean blood pressure, Fasted ([1]; 6 hour fast, day 8) | Mean blood pressure, Fed ([1]; fed, day 7) |
| --- | --- | --- | --- | --- | --- | --- | --- | --- | --- | --- |
| CCc1ccc(CCOc2ccc(CC3(C)SC(=O)NC3=O)cc2)nc1 (single isomer, unassigned) [Compound 4] | 234 | 224 | 200 | 122 | 91 | 236 | 230 | – | – | – |
| CCc1ccc(CCOc2ccc(CC3(C)SC(=O)NC3=O)cc2)nc1 (single isomer, unassigned) [Compound 6] | 233 | 223 | 198 | 126 | 99 | 246 | 246 | – | – | – |
| CCc1ccc(CCOc2ccc(CC3(C)SC(=O)NC3=O)cc2)nc1 (single isomer, unassigned) [Compound 7] | 248 | 237 | 210 | 144 | 105 | 249 | 246 | – | – | – |
| CCc1ccc([C@@H](O)COc2ccc(CC3SC(=O)NC3=O)cc2)nc1 (stereo partly drawn) [Compound 2] | 238 | 236 | 223 | 162 | 136 | 231 | 233 | particularly poor binders | – | – |
| CCc1ccc([C@H](O)COc2ccc(CC3SC(=O)NC3=O)cc2)nc1 (stereo partly drawn) [Compound 3] | 203 | 185 | 134 | 88 | 77 | 226 | 221 | – | – | – |
| CCc1ccc(C(=CC(=O)OC)COc2ccc(CC3SC(=O)NC3=O)cc2)nc1 (stereo not drawn) [Compound 11] | 232 | 229 | 165 | 128 | 78 | 230 | 227 | – | – | – |
| CCc1ccc(C(COc2ccc(CC3SC(=O)NC3=O)cc2)CC(=O)OC)nc1 (stereo not drawn) [Compound 12] | 198 | 155 | 112 | 80 | 85 | 243 | 222 | – | – | – |
| CCc1ccc(C(=CCO)COc2ccc(CC3SC(=O)NC3=O)cc2)nc1 (stereo not drawn) [Compound 13] | 229 | 230 | 204 | 148 | 108 | 244 | 243 | – | – | – |
| NS(=O)(=O)c1cc2c(cc1Cl)NCNS2(=O)=O [HCTZ, hydrochlorothiazide, reference compound] | – | – | – | – | – | – | – | – | 155 | 170 |
